In patent publication US11731943B2, “Therapeutic compounds, compositions and methods of use thereof” (priority 2016, dated 2023):

Columns and labels:
[1] = molecular target: isolated recombinant JAK2 kinase domain (Homo sapiens (Human), UniProt O60674); assay: JAK2 enzyme assay (Caliper LabChip, Ki); type: biochemical
How it was run: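 Caliper LabChip readout of phosphorylated product as a fraction of total substrate, a fluorescently N-terminally labelled JAK3-derived peptide. Isolated human JAK kinase domains were incubated 30 min at 22 °C before EDTA quench (50 mM final).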

[2] = molecular target: isolated recombinant JAK1 kinase domain (Homo sapiens (Human), UniProt P23458); assay: JAK1 enzyme assay (Caliper LabChip, Ki); type: biochemical; conditions: read-out: JAK1 Ki
How it was run: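 Ki derived via Morrison tight-binding model, ATP-competitive correction applied. Read-out: product/total ratio of a 5-carboxyfluorescein-tagged JAK3 peptide separated on Caliper LabChip after phosphorylation by isolated human JAK1 kinase domain (22 °C, 30 min; EDTA quench, 50 mM final).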

[3] = system: JAK1-dependent STAT6 phosphorylation downstream of IL-13 stimulation in BEAS-2B human bronchial epithelial cells; assay: JAK1 pathway assay in BEAS-2B cells (IL-13-pSTAT6, MSD); type: cell-based; conditions: Homo sapiens, BEAS-2B, BEAS-2B cells, IL-13 stimulation; read-out: IL-13 p-STAT6 BEAS-2B IC50

Chain of isolated recombinant JAK1 kinase domain (P23458 875-1153): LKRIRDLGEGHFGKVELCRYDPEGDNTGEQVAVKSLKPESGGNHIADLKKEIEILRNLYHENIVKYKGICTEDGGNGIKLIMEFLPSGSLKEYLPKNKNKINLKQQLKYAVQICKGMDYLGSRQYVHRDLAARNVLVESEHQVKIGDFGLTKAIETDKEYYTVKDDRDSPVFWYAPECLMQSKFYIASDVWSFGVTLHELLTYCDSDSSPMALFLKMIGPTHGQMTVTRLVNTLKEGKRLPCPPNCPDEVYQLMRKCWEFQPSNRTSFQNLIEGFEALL
Chain of isolated recombinant JAK2 kinase domain (O60674 849-1124): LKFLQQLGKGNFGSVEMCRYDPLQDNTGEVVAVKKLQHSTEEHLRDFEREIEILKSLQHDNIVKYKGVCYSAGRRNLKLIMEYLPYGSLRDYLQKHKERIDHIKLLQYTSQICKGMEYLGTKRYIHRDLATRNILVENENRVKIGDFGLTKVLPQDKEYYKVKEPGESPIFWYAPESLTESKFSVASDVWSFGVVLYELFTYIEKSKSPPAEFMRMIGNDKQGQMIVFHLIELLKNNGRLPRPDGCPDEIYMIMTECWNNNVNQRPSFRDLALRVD

Row | SMILES | Ki [1] | Ki [2] | IC50 [3]
1 | N#CCC1(n2cc(C(N)=O)c(NC(=O)C3CC3)n2)CCN(Cc2ccc(-c3csc(Cl)c3)c(F)c2)CC1 [Example 141, 1-[1-[[4-(5-chloro-3-thienyl)-3-fluoro-phenyl]methyl]-4-(cyanomethyl)-4-piperidyl]-3-(cyclopropanecarbonylamino) pyrazole-4-carboxamide] | 3.4 nM | 0.8 nM | 62 nM
2 | CCOC1(C(F)(F)F)CN([C@H]2CC[C@@](CC#N)(n3cc(C(N)=O)c(NC(=O)C4CC4)n3)CC2)C1 (single isomer, unassigned) [Example 9] | 24.3 nM | 2.2 nM | 436 nM
3 | N#CCC1(n2cc(C(N)=O)c(NC(=O)C3CC3)n2)CCN(Cc2ccc(Cl)cc2)CC1 [Example 60] | 23.4 nM | 3.9 nM | 94 nM
4 | C=Cc1cc(F)c(CN2CCC(CC#N)(n3cc(C(N)=O)c(NC(=O)OC)n3)C(F)C2)cc1O (stereo not drawn) [Example 285, methyl N-[4-carbamoyl-1-[4-(cyanomethyl)-3-fluoro-1-[(2-fluoro-5-hydroxy-4-vinyl-phenyl)methyl]-4-piperidyl]pyrazol-3-yl]carbamate] | 0.23 nM | 0.19 nM | 22 nM
5 | N#CCC1(n2cc(C(N)=O)c(NC(=O)C3CC3)n2)CCN(C(=O)OCC2CC2)CC1 [Example 17, Cyclopropylmethyl 4-(4-carbamoyl-3-(cyclopropanecarboxamido)-1H-pyrazol-1-yl)4-(cyanomethyl) piperidine-1-carboxylate] | 69.4 nM | 4 nM | 948 nM
6 | N#CCC1(n2cc(C(N)=O)c(NC(=O)C3CC3)n2)CCN(Cc2ccc(-c3cccc(F)c3)c(O)c2)CC1 [Example 139, 1-[4-(cyanomethyl)-1-[[4-(3-fluorophenyl)-3-hydroxy-phenyl]methyl]-4-piperidyl]-3-(cyclopropanecarbonylamino) pyrazole-4-carboxamide] | 1 nM | 0.4 nM | 104 nM
7 | N#CCC1(n2cc(C(N)=O)c(NC(=O)C3CC3)n2)CCN(Cc2ccc(-c3ccccc3)nc2)CC1F (stereo not drawn) [Example 193, 1-[4-(cyanomethyl)-3-fluoro-1-[(6-phenyl-3-pyridyl)methyl]-4-piperidyl]-3-(cyclopropanecarbonylamino) pyrazole-4-carboxamide] | 0.26 nM | 0.33 nM | 48 nM
8 | N#CCC1(n2cc(C(N)=O)c(NC(=O)C3CC3C#N)n2)CCN(Cc2ccc(-c3ccccc3)nc2F)CC1F (stereo not drawn) [Example 227, 3-[(2-cyanocyclopropanecarbonyl)amino]-1-[4-(cyanomethyl)-3-fluoro-1-[(2-fluoro-6-phenyl-3-pyridyl)methyl]-4-piperidyl]pyrazole-4-carboxamide] | 0.63 nM | 0.31 nM | 54 nM
9 | N#CCC1(n2cc(C(N)=O)c(NC(=O)C3CC3)n2)CCN(Cc2ccc(Br)c(F)c2)CC1 [Example 77] | 44.7 nM | 2.6 nM | 227 nM
10 | N#CCC1(n2cc(C(N)=O)c(NC(=O)C3CC3)n2)CCN(Cc2ccc(-c3cccc(Cl)c3)cc2)CC1 [Example 146, 1-[1-[[4-(3-chlorophenyl)phenyl]methyl]-4-(cyanomethyl)-4-piperidyl]-3-(cyclopropanecarbonylamino) pyrazole-4-carboxamide] | 8.2 nM | 1.1 nM | 95 nM
11 | C#Cc1ccc(CN2CCC(CC#N)(n3cc(C(N)=O)c(NC(=O)C4CC4)n3)C(F)C2)c(Cl)c1 (stereo not drawn) [Example 280, 1-[1-[(2-chloro-4-ethynyl-phenyl)methyl]-4-(cyanomethyl)-3-fluoro-4-piperidyl]-3-(cyclopropanecarbonylamino) pyrazole-4-carboxamide] | 0.4 nM | 0.3 nM | 16 nM
12 | COC(=O)Nc1nn(C2(CC#N)CCN(Cc3ccc(-c4ccco4)nc3F)CC2F)cc1C(N)=O (stereo not drawn) [Example 226, methyl N-[4-carbamoyl-1-[4-(cyanomethyl)-3-fluoro-1-[[2-fluoro-6-(2-furyl)-3-pyridyl]methyl]-4-piperidyl]pyrazol-3-yl]carbamate] | 0.56 nM | 0.37 nM | 49 nM
13 | N#CCC1(n2cc(C(N)=O)c(NC(=O)C3CC3)n2)CCN(Cc2ccc(-c3ccccc3)nc2F)CC1 [Example 188, 1-[4-(cyanomethyl)-1-[(2-fluoro-6-phenyl-3-pyridyl)methyl]-4-piperidyl]-3-(cyclopropanecarbonylamino) pyrazole-4-carboxamide] | 1.4 nM | 0.6 nM | 34 nM
14 | CC(C)OC1(C(F)(F)F)CN([C@H]2CC[C@@](CC#N)(n3cc(C(N)=O)c(NC(=O)C4CC4)n3)CC2)C1 [Example 135] | 24.3 nM | 2.4 nM | 170 nM
15 | N#CCC1(n2cc(C(N)=O)c(NC(=O)C3CC3)n2)CCN(Cc2cnc(-c3ccccc3)cc2F)CC1 [Example 202, 1-[4-(cyanomethyl)-1-[(4-fluoro-6-phenyl-3-pyridyl)methyl]-4-piperidyl]-3-(cyclopropanecarbonylamino) pyrazole-4-carboxamide] | 0.74 nM | 0.55 nM | 74 nM
16 | COC(=O)Nc1nn(C2(CC#N)CCN(Cc3cc(O)c(-c4ccc(C)o4)cc3F)CC2F)cc1C(N)=O (stereo not drawn) [Example 256, methyl N-[4-carbamoyl-1-[4-(cyanomethyl)-3-fluoro-1-[[2-fluoro-5-hydroxy-4-(5-methyl-2-furyl)phenyl]methyl]-4-piperidyl]pyrazol-3-yl]carbamate] | 0.89 nM | 0.15 nM | 47 nM
17 | COC1(C(F)(F)F)CN([C@H]2CC[C@@](CC#N)(n3cc(C(N)=O)c(NC(=O)C4CC4)n3)CC2)C1 [Example 131] | 18.7 nM | 2.8 nM | 334 nM
18 | Cc1cnn(-c2ccc(CN3CCC(CC#N)(n4cc(C(N)=O)c(NC(=O)C5CC5)n4)CC3)cc2)n1 [Example 253, 1-[4-(cyanomethyl)-1-[[4-(4-methyltriazol-2-yl)phenyl]methyl]-4-piperidyl]-3-(cyclopropanecarbonylamino) pyrazole-4-carboxamide] | 5.6 nM | 1 nM | 56 nM
19 | N#CCC1(n2cc(C(N)=O)c(NC(=O)C3CC3)n2)CCN(Cc2ccc(-c3ccn(CC(F)(F)F)n3)c(F)c2)CC1 [Example 190, 1-[4-(cyanomethyl)-1-[[3-fluoro-4-[1-(2,2,2-trifluoroethyl)pyrazol-3-yl]phenyl]methyl]-4-piperidyl]-3-(cyclopropanecarbonylamino) pyrazole-4-carboxamide] | 11 nM | 1.1 nM | 93 nM
20 | N#CCC1(n2cc(C(N)=O)c(NC(=O)C3CC3)n2)CCN(Cc2ccc(-c3ccc(C(F)(F)F)cc3)nc2)CC1 [Example 166, 1-[4-(cyanomethyl)-1-[[6-[4-(trifluoromethyl)phenyl]-3-pyridyl]methyl]-4-piperidyl]-3-(cyclopropanecarbonylamino) pyrazole-4-carboxamide] | 80 nM | 2.2 nM | 68 nM
